In patent US20070111889A1, “6-(Aminocarbonyl-phenyl)triazolopyrimidines, methods for the production thereof, use thereof for controlling harmful fungi, and substances containing the same” (BASF Aktiengesellschaft, priority 2003, published 2007):

What was measured:
Plasmopara viticola = assay: Activity against Peronospora of vines caused by Plasmopara viticola (protective spray, potted vines); type: in vivo; conditions: 250 ppm; vines cultivar Riesling; inoculated the day after spraying; assessed visually; untreated plants 90% infected
Experimental: The active compounds were prepared as a stock solution with 0.25% by weight of active compound in acetone or DMSO. 1% by weight of the emulsifier Uniperol® EL (wetting agent having emulsifying and dispersing action based on ethoxylated alkylphenols) was added to this solution, and the mixture was diluted with water to the desired concentration.
Leaves of potted vines of the cultivar “Riesling” were sprayed to runoff point with an aqueous suspension having the concentration of active compounds stated below. The next day, the undersides of the leaves were inoculated with an aqueous zoospore suspension of Plasmopara viticola. The vines were then initially placed in a water-vapor-saturated chamber at 24° C. for 48 hours and then in a greenhouse at temperatures of between 20 and 30° C. for 5 days. After this time, the plants were again placed in a moist chamber for 16 hours to promote sporangiophore eruption. The extent of the development of the infection on the undersides of the leaves was then determined visually.

Pyrenophora teres = assay: Activity against net blotch of barley caused by Pyrenophora teres (protective spray, barley seedlings); type: in vivo, Pyrenophora [syn. Drechslera] teres; conditions: 63 ppm; barley cultivar Hanna; inoculated 24 h after spraying; assessed visually after 6 days; untreated plants 90% infected
Experimental: The active compounds were prepared as a stock solution with 0.25% by weight of active compound in acetone or DMSO. 1% by weight of the emulsifier Uniperol® EL (wetting agent having emulsifying and dispersing action based on ethoxylated alkylphenols) was added to this solution, and the mixture was diluted with water to the desired concentration. Leaves of pot-grown barley seedlings of the cultivar “Hanna” were sprayed to runoff point with an aqueous suspensiori having the concentration of active compound stated below. 24 hours after the spray coating had dried on, the test plants were inoculated with an aqueous spore suspension of Pyrenophora [syn. Drechslera] teres, the causative agent of net blotch. The test plants were subsequently placed in a greenhouse at temperatures of between 20 and 24° C. and at a relative atmospheric humidity of 95 to 100%. After 6 days, the extent of the development of the disease was determined visually in % of infection of the total leaf area.

For `CC1CCN(c2c(-c3c(F)cc(C(N)=O)cc3F)c(Cl)nc3ncnn23)CC1` [I-1, 5-chloro-6-(2,6-difluoro-4-aminocarbonylphenyl)-7-(4-methylpiperidin-1-yl)-[1,2,4]-triazolo[1,5-a]pyrimidine], the “infection on the undersides of the leaves” value (Plasmopara viticola) was “no infection” and the “infection (% of infection of the total leaf area)” value (Pyrenophora teres) was “about 3%”.
